From patent US20060100431A1, “Biologically active compounds” (Amura Therapeutics Limited, priority 2002, published 2006)

Legend:
CPB2.8ΔCTE = biological target: T1, CPB2.8ΔCTE (Leishmania mexicana, UniProt P36400); assay: Leishmania mexicana cysteine protease B (CPB) peptidase activity assay (Ki); type: biochemical; settings: Ki, inhibitors of Leismania mexicana CPB protease
T1 construct: Wild-type recombinant CPB without the C-terminal extention (i.e. CPB2.8ΔCTE); Dr. Jeremy Mottram (Wellcome Centre for Molecular Parasitology, University of Glasgow)
Description: Unless otherwise stated, all general chemicals and biochemicals were purchased from either the Sigma Chemical Company, Poole, Dorset, U.K or from Fisher Scientific UK, Loughborough, Leicestershire, U.K. Absorbance assays were carried out in flat-bottomed 96-well plates (Spectra; Greiner Bio-One Ltd., Stonehouse, Gloucestershire, U.K.) using a SpectraMax PLUS384 plate reader (Molecular Devices, Crawley, U.K.). Fluorescence high throughput assays were carried out in either 384-well microtitre plates (Corning Costar 3705 plates, Fisher Scientific) or 96-well ‘U’ bottomed Microfluor W1 microtitre plates (Thermo Labsystems, Ashford, Middlesex, U.K.). Fluorescence assays were monitored using a SpectraMax Gemini fluorescence plate reader (Molecular Devices). For substrates employing either a 7-amino-4-methylcoumarin (AMC) or a 7-amino-4-trifluoromethylcoumarin (AFC) fluorophore, assays were monitored at an excitation wavelength of 365 nm and an emission wavelength of 450 nm and the fluorescence plate reader calibrated with AMC. For substrates employing a 3-amino-benzoyl (Abz) fluorophore, assays were monitored at an excitation wavelength of 310 nm and an emission wavelength of 445 nm; the fluorescence plate reader calibrated with 3-amino-benzamide (Fluka). Unless otherwise indicated, all the peptidase substrates were purchased from Bachem UK, St Helens, Merseyside, UK. Substrates utilizing fluorescence resonance energy transfer methodology (i.e. FRET-based substrates) were synthesized at Incenta Limited using published methods (Atherton & Sheppard, Solid Phase Peptide Synthesis, IRL Press, Oxford, U.K, 1989) and employed Abz (2-aminobenzoyl) as the fluorescence donor and 3-nitro-tyrosine [Tyr(NO2)] as the fluorescence quencher (Meldal, M. and Breddam, K., Anal. Biochem, 195, 141-147, 1991). Hydroxyethylpiperazine ethanesulfonate (HEPES), tris-hydroxylmethyl aminomethane (tris) base, bis-tris-propane and all the biological detergents (e.g. CHAPS, zwittergents, etc.) were purchased from CN Biosciences UK, Beeston, Nottinghamshire, U.K. Glycerol was purchased from Amersham Pharmacia Biotech, Little Chalfont, Buckinghamshire, U.K. Stock solutions of substrate or inhibitor were made up to 10 mM in 100% dimethylsulfoxide (DMSO) (Rathburns, Glasgow, U.K.) and diluted as appropriately required. In all cases the DMSO concentration in the assays was maintained at less than 1% (vol./vol.).
Assay protocols were based on literature precedent (Table 4; Barrett, A. J., Rawlings, N. D. and Woessner, J. F., 1998, Handbook of Proteolytic Enzymes, Academic Press, London and references therein) and modified as required to suit local assay protocols. Enzyme was added as required to initiate the reaction and the activity, as judged by the change in fluorescence upon conversion of substrate to product, was monitored over time. All assays were carried out at 25±1° C.
Wild-type recombinant CPB without the C-terminal extention (i.e. CPB2.8ΔCTE; Sanderson, S. J., et. al., Biochem. J., 347, 383-388, 2000) was obtained from Dr. Jeremy Mottram (Wellcome Centre for Molecular Parasitology, The Anderson College, University of Glasgow, Glasgow, U.K.). Activity assays were carried out in 100 mM sodium acetate; pH 5.5 containing 1 mM EDTA; 200 mM NaCl and 10 mM DTT (Alves, L. C., et. al., Mol. Biochem. Parasitol, 116, 1-9, 2001) using 0.25 nM enzyme. […] The rate of conversion of substrate to product was derived from the slope of the increase in fluorescence monitored continuously over time.
The apparent inhibition constant (Ki) for each compound was determined on the basis that inhibition was reversible and occurred by a pure-competitive mechanism. The Ki values were calculated, from the dependence of enzyme activity as a function of inhibitor concentration, by direct regression analysis (Prism v 3.02) using Equation 2 (Cornish-Bowden, A., 1995.). [formula]

Wild-type cruzipain = Wild-type cruzipain (Trypanosoma cruzi, UniProt P25779); assay: Trypanosoma cruzi cruzipain peptidase activity assay (Ki); type: biochemical; settings: read-out: Ki, inhibitors of cruzain and cruzipains
Summary of the method: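 Native cruzipain from T. cruzi Dm28 epimastigotes, 2.5 nM, in 100 mM sodium phosphate pH 6.75 with 1 mM EDTA and 10 mM L-cysteine, 25 °C, DMSO <1%. Rates taken from continuous fluorogenic substrate read; Ki by regression assuming reversible pure-competitive inhibition.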

Sequence of Wild-type cruzipain (P25779 whole entry): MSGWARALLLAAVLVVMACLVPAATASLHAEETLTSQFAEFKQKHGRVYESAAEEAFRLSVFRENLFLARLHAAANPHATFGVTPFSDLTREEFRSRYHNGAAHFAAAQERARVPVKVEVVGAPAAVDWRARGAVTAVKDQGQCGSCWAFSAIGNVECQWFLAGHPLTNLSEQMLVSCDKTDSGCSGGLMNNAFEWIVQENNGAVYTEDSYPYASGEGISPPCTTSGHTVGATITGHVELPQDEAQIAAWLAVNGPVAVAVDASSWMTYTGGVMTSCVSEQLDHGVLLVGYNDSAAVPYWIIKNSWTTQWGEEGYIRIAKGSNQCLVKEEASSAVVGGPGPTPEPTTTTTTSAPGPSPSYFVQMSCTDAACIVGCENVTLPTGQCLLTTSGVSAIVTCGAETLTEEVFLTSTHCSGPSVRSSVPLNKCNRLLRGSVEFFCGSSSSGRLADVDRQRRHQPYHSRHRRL
T1 sequence (P36400 126-343, stated change not applied): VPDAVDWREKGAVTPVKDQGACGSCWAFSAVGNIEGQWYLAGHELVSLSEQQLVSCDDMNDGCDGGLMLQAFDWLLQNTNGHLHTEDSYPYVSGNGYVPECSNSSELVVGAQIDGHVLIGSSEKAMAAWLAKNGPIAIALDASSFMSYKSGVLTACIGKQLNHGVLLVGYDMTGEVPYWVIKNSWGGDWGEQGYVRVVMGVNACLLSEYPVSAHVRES

Row | Structure (SMILES) | Ki (CPB2.8ΔCTE) [µM] | Ki (Wild-type cruzipain) [µM]
1 | CC(C)C[C@H](NC(=O)c1ccc(C(C)(C)C)cc1)C(=O)N1CC[C@@H]2[C@H]1C(=O)CN2C(=O)C1COc2ccccc2O1 (stereo partly drawn) [Example 29, (3aR,6aS)-4-tert-Butyl-N-{(1S)-1-[4-(2,3-dihydrobenzo[1,4]dioxine-2-carbonyl)-6-oxo-hexahydro-pyrrolo[3,2-b]pyrrole-1-carbonyl]-3-methyl-butyl}-benzamide] | < 5 | < 5
2 | CC(C)C[C@H](NC(=O)c1ccc(C(C)(C)C)cc1)C(=O)N1CC[C@@H]2[C@H]1C(=O)CN2C(=O)c1ccc2ncsc2c1 [Example 32, (3aR,6aS)-N-{(1S)-1-[4-(Benzothiazole-6-carbonyl)-6-oxo-hexahydro-pyrrolo[3,2-b]pyrrole-1-carbonyl]-3-methyl-butyl}-4-tert-butyl-benzamide] | < 5 | < 5
3 | CC(C)C[C@H](NC(=O)c1ccc(N(C)C)cc1)C(=O)N1CC[C@@H]2[C@H]1C(=O)CN2C(=O)c1ccccc1S(C)(=O)=O [Example 42, (3aR,6aS)-4-Dimethylamino-N-{(1S)-1-[4-(2-methanesulfonyl-benzoyl)-6-oxo-hexahydro-pyrrolo[3,2-b]pyrrole-1-carbonyl]-3-methyl-butyl}-benzamide] | < 5 | < 5
4 | CC(C)C[C@H](NC(=O)c1ccc(-c2ccccc2)s1)C(=O)N1CC[C@@H]2[C@H]1C(=O)CN2C(=O)c1ccccc1 [Example 44, (3aR,6aS)-5-Phenyl-thiophene-2-carboxylic acid [(1S)-1-(4-benzoyl-6-oxo-hexahydro-pyrrolo[3,2-b]pyrrole-1-carbonyl)-3-methyl-butyl]-amide] | < 5 | < 5
5 | CC(C)C[C@H](NC(=O)c1ccc(N(C)C)cc1)C(=O)N1CC[C@@H]2[C@H]1C(=O)CN2C(=O)c1ccc([N+](=O)[O-])cc1 [Example 47, (3aR,6aS)-4-Dimethylamino-N-{(1S)-3-methyl-1-[4-(4-nitro-benzoyl)-6-oxo-hexahydro-pyrrolo[3,2-b]pyrrole-1-carbonyl]-butyl}-benzamide] | < 5 | < 5
6 | CC(C)C[C@H](NC(=O)c1ccc(N(C)C)cc1)C(=O)N1CC[C@@H]2[C@H]1C(=O)CN2C(=O)c1ccc(N)cc1 [Example 50, (3aR,6aS)-N-{(1S)-1-[4-(4-Amino-benzoyl)-6-oxo-hexahydro-pyrrolo[3,2-b]pyrrole-1-carbonyl]-3-methyl-butyl}-4-dimethylamino-benzamide] | < 5 | < 5
7 | CC(C)C[C@H](NC(=O)c1ccc(N(C)C)cc1)C(=O)N1CC[C@@H]2[C@H]1C(=O)CN2C(=O)c1ccc(Oc2ccccc2)cc1 [Example 56, (3aR,6aS)-4-Dimethylamino-N-{(1S)-3-methyl-1-[6-oxo-4-(4-phenoxy-benzoyl)-hexahydro-pyrrolo[3,2-b]pyrrole-1-carbonyl]-butyl}-benzamide] | < 5 | < 5
8 | CC(C)C[C@H](NC(=O)c1ccc(N(C)C)cc1)C(=O)N1CC[C@@H]2[C@H]1C(=O)CN2C(=O)c1ccccc1F [Example 62, (3aR,6aS)-4-Dimethylamino-N-{(1S)-1-[4-(2-fluoro-benzoyl)-6-oxo-hexahydro-pyrrolo[3,2-b]pyrrole-1-carbonyl]-3-methyl-butyl}-benzamide] | < 5 | < 5
9 | COc1ccccc1C(=O)N1CC(=O)[C@@H]2[C@H]1CCN2C(=O)[C@H](CC(C)C)NC(=O)c1ccc(N(C)C)cc1 [Example 64, (3aR,6aS)-4-Dimethylamino-N-{(1S)-1-[4-(2-methoxy-benzoyl)-6-oxo-hexahydro-pyrrolo[3,2-b]pyrrole-1-carbonyl]-3-methyl-butyl}-benzamide] | < 5 | < 5
10 | COc1ccc(C(=O)N2CC(=O)[C@@H]3[C@H]2CCN3C(=O)[C@H](CC(C)C)NC(=O)c2ccc(N(C)C)cc2)cc1 [Example 66, (3aR,6aS)-4-Dimethylamino-N-{(1S)-1-[4-(4-methoxy-benzoyl)-6-oxo-hexahydro-pyrrolo[3,2-b]pyrrole-1-carbonyl]-3-methyl-butyl}-benzamide] | < 5 | < 5
